Converted amounts (≈) assume the structure as drawn. “And” between values parts separate entries of the source, which are not always exact repeats. Equal values may be shown once. Read-outs that look alike come from different tables or passages of the source.
Assays:
L. amazonensis [1] = assay: In vitro classic microscopic test, intracellular amastigotes in infected murine peritoneal macrophages; format: cell-based, Leishmania amazonensis (IFLA/BR/1967/PH8); conditions: for IC50: Leishmania amazonensis, Peritoneal macrophage, 72 h; for IC50, half-maximal inhibitory response (Figure 2): intracellular L. amazonensis, curve of one representative experiment; for IC50: the inhibitory concentration that killed 50% of the L. amazonensis: intracellular amastigotes in Balb/c peritoneal macrophages, 3 days exposure, based on percentage of infected macrophages
Protocol: The World Health Organization (WHO) reference strain L. amazonensis (IFLA/BR/1967/PH8) was used and typed as previously described. Promastigote forms were grown at 25°C in M199 medium (Sigma) supplemented with 10% heat-inactivated fetal calf serum (Cultilab), 40 mmol/L HEPES (Amersham), 0.1 mmol/L adenine (Sigma), 0.0005% hemin (Sigma), 0.0002% biotin (Sigma), 50 units/mL penicillin, and […] streptomycin (Invitrogen).
(§1) Animals were kept in the Animal Facility of the Centro de Pesquisas René Rachou/FIOCRUZ in strict accordance to the Guide for the Care and Use of Experimental Animals. The procedures were approved by the Internal Ethics Committee in Animal Experimentation (CEUA) of Fundação Oswaldo Cruz (FIOCRUZ), Brazil (Protocol L-042/08). Mice were euthanized with CO2 in an induction chamber prior to macrophage removal. Balb/c mice were injected intraperitoneally with 2 mL of 3% sodium thioglycollate medium. After 72 h, peritoneal macrophages were removed by washing with cold RPMI 1640 medium and enriched by adherence to round glass coverslips (13 mm) placed in a 4-well culture plate. Cells (2 × 10^5 cells/well) were cultured (37°C, 5% CO2, 18 h) in RPMI supplemented with 10% heat-inactivated FBS (fetal bovine serum) prior to infection with parasites. Macrophages were exposed to stationary phase promastigotes (2 × 10^6/well) at a final ratio of 1 : 10. The plates were incubated at 37°C, 5% CO2, for 5 h in BOD to allow internalization of parasites. Then, the medium was removed for the remaining noninternalized parasites. Negative control included only infected macrophages and medium. Incubations were tested in duplicate in two independent experiments. The substances were serial diluted with RPMI 1640 medium supplemented with 10% FBS at five different concentrations (50 → 3.1 μg/mL). For compounds (3) and (6), the dilution was 10 → 0.016 μg/mL. […] Infected macrophages were exposed daily to the compounds for 3 consecutive days. After this period, coverslips were collected, stained with Panoptic (Laborclin), and subsequently mounted with Entellan (Merck) on glass slides.
The in vitro classic microscopic test enables direct counting to determine the percentage of infected cells and/or the number of amastigotes. Here, the IC50 values were calculated based on the percentage of infected macrophages.

HepG2 cells = assay: Cytotoxicity test, MTT method, HepG2 cells; conditions: for MLD50: the minimum lethal dose that killed 50% of the cells, HepG2: MTT, 24 h; for MLD50, the minimum lethal dose (Figure 2): hepatoma HepG2 cell, curve of one representative experiment
Protocol: (§2) Balb/c murine peritoneal macrophages were obtained as described above. Cytotoxicity was determined using the MTT method (3-(4,5-dimethylthiazol-2-yl)-2,5-diphenyl tetrazolium bromide) (Sigma). HepG2 cells were kept in RPMI medium supplemented with 10% FBS, and confluent monolayers were trypsinized, washed in RPMI, and transferred to 96-well microtiter plates (4 × 10^4 cells/well) for 16–18 h. Murine macrophages were used in the concentration 2 × 10^5 cells/well in 96-well microtiter plates. The compounds were serial diluted in different concentrations (10 → 0.16 mg/mL). In both tests, the medium was removed, and the compounds were incubated for 24 h (37°C, 5% CO2). Colorimetric reaction was developed following the incubation with MTT (37°C, 5% CO2, 4 h) and addition of acidified isopropanol. The reaction was read spectrophotometrically (Spectramax M5, Molecular Devices, San Francisco, CA) with a 570 nm filter and a background of 670 nm. Incubations were tested in triplicate in two independent experiments. The minimum dose that killed 50% of the cells (MLD50) was determined, and the values were plotted to generate dose-response curves using Microcal Origin Software (Northampton, MA, USA).

murine macrophages = assay: Cytotoxicity test, MTT method, murine peritoneal macrophages; conditions: for MLD50: the minimum lethal dose that killed 50% of the cells, macrophages: murine peritoneal macrophages, MTT, 24 h
Protocol: as §1
as §2, with “The cell lineage HepG2 A16 was derived from a human hepatocellular carcinoma cell line HepG2 (ATCC HB-8065) and obtained from America Type Culture Collection line (ATCC). Balb/c” for “Balb/c”

L. amazonensis [2] = tested on: L. amazonensis; set-up: method as in PMID 15654435; conditions: strain MHOM/BR/77/LTB0016 ref 5; cited from earlier work
L. braziliensis = tested on: L. braziliensis; set-up: method as in PMID 15654435; conditions: cited from earlier work

| Compound | IC50 (L. amazonensis [1]; read-out: IC50: the inhibitory concentration that killed 50% of the L. amazonensis) [µg/mL] | MLD50: the minimum lethal dose that killed 50% of the cells, HepG2 (HepG2 cells) [µg/mL] | MLD50: the minimum lethal dose that killed 50% of the cells, macrophages (murine macrophages) [µg/mL] | IC50, half-maximal inhibitory response (Figure 2) (L. amazonensis [1]) [µg/mL] | IC50: the inhibitory concentration that killed 50% of the L. amazonensis (L. amazonensis [1]) | MLD50, the minimum lethal dose (Figure 2) (HepG2 cells) [µg/mL] | IC50 (L. amazonensis [1]; read-out: IC50: the inhibitory concentration that killed 50% of the L. amazonensis, intracellular amastigotes in Balb/c peritoneal macrophages, 3 days exposure, based on percentage of infected macrophages) [µg/mL] | SI: selective index, HepG2 (HepG2 cells; MLD50/IC50 ratio, HepG2 cells versus L. amazonensis) | SI: selective index, macrophages (murine macrophages; MLD50/IC50 ratio, murine macrophages versus L. amazonensis) | IC50 against L. amazonensis, previous studies (L. amazonensis [2]) [µg/mL] | IC50 observed for L. braziliensis (L. braziliensis) [µg/mL] |
| --- | --- | --- | --- | --- | --- | --- | --- | --- | --- | --- | --- |
| C[C@@H]1[C@H](O)[C@@H](C)/C=C/C=C/C=C/C=C/C=C/C=C/C=C/[C@H](O[C@@H]2O[C@H](C)[C@@H](O)[C@H](N)[C@@H]2O)C[C@@H]2O[C@](O)(C[C@@H](O)C[C@@H](O)[C@H](O)CC[C@@H](O)C[C@@H](O)CC(=O)O[C@H]1C)C[C@H](O)[C@H]2C(=O)O [Amphotericin B] | 0.73 ± 0.6 (≈ 0.79 µM) | 644.59 ± 126.57 | 179.95 ± 8.84 |  |  |  |  |  |  |  |  |
| (Lp)(Ph3Sn) [(3)] |  | 12.01 ± 0.17 | 1.6 ± 0.57 | 0.15 | 0.17 ± 0.03 µg/mL | 11.9 |  |  |  |  |  |
| (Lp)(Ph3Sb)OH [(2)] |  | 325.22 ± 89.40 | 130.65 ± 40.52 |  | > 10 µg/mL and 18.27 ± 5.58 µg/mL |  |  |  |  |  |  |
| (Lp)(Ph3Bi)O0.5 [(1)] |  | 58.38 ± 8.47 | 32.4 ± 8.20 |  |  |  |  |  |  |  |  |
| [Cl][Bi]([Cl])([c]1ccccc1)([c]1ccccc1)[c]1ccccc1 [(4), Triphenylbismuth dichloride] |  | 183.75 ± 4.77 | 25.15 ± 0.49 | 5.51 | 5.40 ± 0.16 µg/mL | 187.1 |  |  |  |  |  |
| [Cl][Sn]([c]1ccccc1)([c]1ccccc1)[c]1ccccc1 [(6), triphenyltin chloride] |  | 12.04 ± 8.42 | 0.73 ± 0.13 | 0.18 | 0.10 ± 0.11 µg/mL | 18 |  |  |  |  |  |
| [Cl][Sb]([Cl])([c]1ccccc1)([c]1ccccc1)[c]1ccccc1 [(5), triphenylantimony dichloride] |  | 157.46 ± 37.13 | 30.75 ± 6.01 |  | 11.61 ± 7.85 µg/mL |  |  |  |  |  |  |
| CC(C)=CCC1=C(O)C(=O)c2ccccc2C1=O [(7), 2-hydroxy-3-(3′-methyl-2-butenyl)-1,4-naphthoquinone] |  | 201.77 ± 5.32 | 184.65 ± 6.58 |  | 15.48 ± 5.23 µg/mL |  | > 10 | 13.03 | 11.92 | 5.2 ± 0.70 (≈ 21.5 µM) | 11.9 ± 6.9 |

From paper PMC3677620, “Cytotoxicity and In Vitro Antileishmanial Activity of Antimony (V), Bismuth (V), and Tin (IV) Complexes of Lapachol” (Bioinorganic Chemistry and Applications, 2013)
